Experimental data as given in ChEMBL document CHEMBL1201862, “PubChem BioAssay data set” (2004).
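Test compounds were applied to cells in 96-well plates for 48 hours at 5 doses. GI50 = concentration required for 50% inhibition of growth.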 Calls of active or inactive are those of the source. Rule as the data show it: active = GI50 up to about 1.1 µM and inactive = higher.

Legend:
Assay in all cases: NCI anticancer screen, dose series, 48 h
786-0 = system: 786-0
ACHN = system: ACHN
CAKI-1 = system: CAKI-1
CCRF-CEM = system: CCRF-CEM
EKVX = system: EKVX
HCT-15 = system: HCT-15
MDA-MB-435 = system: MDA-MB-435
MOLT-4 = system: MOLT-4
NCI-H23 = system: NCI-H23
NCI-H522 = system: NCI-H522
OVCAR-3 = system: OVCAR-3
RXF 393 = system: RXF 393
SF-295 = system: SF-295
SF-539 = system: SF-539
SK-MEL-5 = system: SK-MEL-5
TK-10 = system: TK-10
UACC-257 = system: UACC-257
UACC-62 = system: UACC-62
UO-31 = system: UO-31
NCI-H226 = system: NCI-H226

Structure (SMILES): CCOC(=O)c1cc(C)n(CN(CCO)Cn2nc(C(=O)OCC)cc2C)n1
- GI50 (786-0): 22 µM (inactive)
- GI50 (ACHN): 22.8 µM (inactive)
- GI50 (CAKI-1): 36.2 µM (inactive)
- GI50 (CCRF-CEM): 18.8 µM (inactive)
- GI50 (EKVX): 34.2 µM (inactive)
- GI50 (HCT-15): 21.5 µM
- GI50 (MDA-MB-435): 39.7 µM (inactive)
- GI50 (MOLT-4): 31.8 µM (inactive)
- GI50 (NCI-H23): 21.1 µM (inactive)
- GI50 (NCI-H522): 22.6 µM (inactive)
- GI50 (OVCAR-3): 26 µM (inactive)
- GI50 (RXF 393): 19.3 µM (inactive)
- GI50 (SF-295): > 100 µM (inactive)
- GI50 (SF-539): 17.7 µM (inactive)
- GI50 (SK-MEL-5): 37.2 µM (inactive)
- GI50 (TK-10): 80.2 µM (inactive)
- GI50 (UACC-257): 29.2 µM (inactive)
- GI50 (UACC-62): 17.8 µM (inactive)
- GI50 (UO-31): 21.5 µM (inactive)

Structure (SMILES): COc1cc(OC)c2nc(C)c3c(c2c1)NCC3
- GI50 (786-0): 4.42 µM (inactive)
- GI50 (ACHN): 4.88 µM (inactive)
- GI50 (CCRF-CEM): 5.26 µM (inactive)
- GI50 (HCT-15): 12.1 µM
- GI50 (MDA-MB-435): 10 µM (inactive)
- GI50 (NCI-H226): 3.47 µM (inactive)
- GI50 (NCI-H23): 6.34 µM (inactive)
- GI50 (NCI-H522): 7.73 µM (inactive)
- GI50 (OVCAR-3): 10.2 µM (inactive)
- GI50 (RXF 393): 4.48 µM (inactive)
- GI50 (SF-295): 11.2 µM (inactive)
- GI50 (SF-539): 4.32 µM (inactive)
- GI50 (SK-MEL-5): 10 µM (inactive)
- GI50 (TK-10): 7.91 µM (inactive)
- GI50 (UACC-257): 3.91 µM (inactive)
- GI50 (UACC-62): 9.16 µM (inactive)
- GI50 (UO-31): 8.73 µM (inactive)

Structure (SMILES): COc1ccc(-n2cnc3c2=NC(C)(C)NC=3C(N)=O)c(OC)c1
- GI50 (786-0): > 100 µM (inactive)
- GI50 (ACHN): > 100 µM (inactive)
- GI50 (CAKI-1): > 100 µM (inactive)
- GI50 (CCRF-CEM): > 100 µM (inactive)
- GI50 (EKVX): > 100 µM (inactive)
- GI50 (HCT-15): > 100 µM
- GI50 (MDA-MB-435): > 100 µM (inactive)
- GI50 (NCI-H226): > 100 µM (inactive)
- GI50 (NCI-H23): > 100 µM (inactive)
- GI50 (NCI-H522): > 100 µM (inactive)
- GI50 (OVCAR-3): > 100 µM (inactive)
- GI50 (RXF 393): > 100 µM (inactive)
- GI50 (SF-295): > 100 µM (inactive)
- GI50 (SF-539): > 100 µM (inactive)
- GI50 (SK-MEL-5): > 100 µM (inactive)
- GI50 (TK-10): > 100 µM (inactive)
- GI50 (UACC-257): > 100 µM (inactive)
- GI50 (UACC-62): > 100 µM (inactive)

Structure (SMILES): c1ccc(B2OCC(C3OB(c4ccccc4)OC4COB(c5ccccc5)OC43)O2)cc1 (stereo not drawn)
- GI50 (786-0): > 100 µM (inactive)
- GI50 (ACHN): > 100 µM (inactive)
- GI50 (CAKI-1): > 100 µM (inactive)
- GI50 (CCRF-CEM): > 100 µM (inactive)
- GI50 (EKVX): > 100 µM (inactive)
- GI50 (HCT-15): > 100 µM
- GI50 (MDA-MB-435): > 100 µM (inactive)
- GI50 (MOLT-4): > 100 µM (inactive)
- GI50 (NCI-H23): > 100 µM (inactive)
- GI50 (NCI-H522): 24.5 µM (inactive)
- GI50 (OVCAR-3): > 100 µM (inactive)
- GI50 (RXF 393): > 100 µM (inactive)
- GI50 (SF-295): > 100 µM (inactive)
- GI50 (SF-539): > 100 µM (inactive)
- GI50 (SK-MEL-5): > 100 µM (inactive)
- GI50 (TK-10): > 100 µM (inactive)
- GI50 (UACC-257): > 100 µM (inactive)
- GI50 (UACC-62): > 100 µM (inactive)
- GI50 (UO-31): > 100 µM (inactive)

Structure (SMILES): CC(C)(O)C1CC[C@]2(C)[C@H]3CC[C@@H]4[C@@]5(C)CCCC(C)(C)[C@@H]5CC[C@@]4(C)[C@]3(C)CC[C@@H]12 (stereo partly drawn)
- GI50 (786-0): > 100 µM (inactive)
- GI50 (ACHN): > 100 µM (inactive)
- GI50 (CAKI-1): > 100 µM (inactive)
- GI50 (CCRF-CEM): > 100 µM (inactive)
- GI50 (EKVX): > 100 µM (inactive)
- GI50 (HCT-15): > 100 µM
- GI50 (MDA-MB-435): > 100 µM (inactive)
- GI50 (MOLT-4): > 100 µM (inactive)
- GI50 (NCI-H23): > 100 µM (inactive)
- GI50 (NCI-H522): > 100 µM (inactive)
- GI50 (OVCAR-3): > 100 µM (inactive)
- GI50 (RXF 393): > 100 µM (inactive)
- GI50 (SF-295): > 100 µM (inactive)
- GI50 (SF-539): > 100 µM (inactive)
- GI50 (SK-MEL-5): > 100 µM (inactive)
- GI50 (TK-10): > 100 µM (inactive)
- GI50 (UACC-257): > 100 µM (inactive)
- GI50 (UACC-62): > 100 µM (inactive)

Structure (SMILES): Cc1ccc(/N=C2\C(=O)C3=C(OC(C)(C)CC3)c3ccccc32)cc1
- GI50 (786-0): 1.78 µM (inactive)
- GI50 (ACHN): 0.313 µM (active)
- GI50 (CAKI-1): 1.71 µM (inactive)
- GI50 (CCRF-CEM): 2.04 µM (inactive)
- GI50 (EKVX): 1.81 µM (inactive)
- GI50 (HCT-15): 0.415 µM
- GI50 (MDA-MB-435): 0.183 µM (active)
- GI50 (MOLT-4): 0.729 µM (active)
- GI50 (NCI-H226): 2.86 µM (inactive)
- GI50 (NCI-H23): 1.08 µM (active)
- GI50 (NCI-H522): 1.25 µM (inactive)
- GI50 (OVCAR-3): 0.151 µM (active)
- GI50 (RXF 393): 1.71 µM (inactive)
- GI50 (SF-295): 1.4 µM (inactive)
- GI50 (SK-MEL-5): 0.951 µM (active)
- GI50 (TK-10): 2.27 µM (inactive)
- GI50 (UACC-257): 0.748 µM (active)
- GI50 (UACC-62): 1.49 µM (inactive)
- GI50 (UO-31): 0.652 µM (active)

Structure (SMILES): O=C(/C=C/c1ccc(O)c(O)c1)OCCCOC(=O)/C=C/c1ccc(O)c(O)c1
- GI50 (786-0): 20.2 µM (inactive)
- GI50 (ACHN): 16.2 µM (inactive)
- GI50 (CAKI-1): 34.4 µM (inactive)
- GI50 (CCRF-CEM): 2.63 µM (inactive)
- GI50 (EKVX): 33.4 µM (inactive)
- GI50 (HCT-15): 14 µM
- GI50 (MDA-MB-435): 30.2 µM (inactive)
- GI50 (MOLT-4): 10.9 µM (inactive)
- GI50 (NCI-H23): 20.9 µM (inactive)
- GI50 (NCI-H522): 11.6 µM (inactive)
- GI50 (OVCAR-3): 10.8 µM (inactive)
- GI50 (RXF 393): 26.8 µM (inactive)
- GI50 (SF-295): 18 µM (inactive)
- GI50 (SF-539): 41.9 µM (inactive)
- GI50 (SK-MEL-5): 15.9 µM (inactive)
- GI50 (TK-10): 29.3 µM (inactive)
- GI50 (UACC-257): 26.4 µM (inactive)
- GI50 (UACC-62): 16.6 µM (inactive)
- GI50 (UO-31): 7.13 µM (inactive)

Structure (SMILES): Cc1cc(O)c(C(C)C)cc1C1(c2cc(C(C)C)c(O)cc2C)OC(=O)c2ccccc21
- GI50 (786-0): 2.4 µM (inactive)
- GI50 (ACHN): 2.62 µM (inactive)
- GI50 (CAKI-1): 3.37 µM (inactive)
- GI50 (EKVX): 2.99 µM (inactive)
- GI50 (HCT-15): 2 µM
- GI50 (MDA-MB-435): 1.63 µM (inactive)
- GI50 (MOLT-4): 1.34 µM (inactive)
- GI50 (NCI-H226): 2.48 µM (inactive)
- GI50 (NCI-H23): 2.12 µM (inactive)
- GI50 (NCI-H522): 1.84 µM (inactive)
- GI50 (OVCAR-3): 2.06 µM (inactive)
- GI50 (RXF 393): 1.47 µM (inactive)
- GI50 (SF-295): 1.78 µM (inactive)
- GI50 (SF-539): 1.79 µM (inactive)
- GI50 (SK-MEL-5): 1.6 µM (inactive)
- GI50 (TK-10): 3.33 µM (inactive)
- GI50 (UACC-257): 1.85 µM (inactive)
- GI50 (UACC-62): 1.46 µM (inactive)
- GI50 (UO-31): 2.56 µM (inactive)
